Data published in patent publication US11969428B2, “Methods and pharmaceutical compositions for treating lymphoid malignancy” (priority 2011, dated 2024).

Experiments:
platelets = assay: ADP-induced platelet aggregation; type: cell-based, mouse; settings: platelets from p110γ/δ double knockout mice 2 hours post administration of CAL-130 (10 mg kg−1)
Procedure: Blood was obtained from anesthetized p110δ/γ double knockout mice via cardiac puncture. Platelets were purified from PRP by centrifugation and resuspended to a final concentration of […] in buffer (145 mM NaCl, 10 mM Hepes, 0.5 mM Na2HPO4, 5 mM KCl, 2 mM MgCl2, 1 mM CaCl2, 0.1% glucose, pH 7.4). CAL-130 (1 μM, 2.5 μM, or 5 μM final concentration) or DMSO was added to platelet suspensions 5 minutes prior to inducing aggregation with ADP (25 μM). Mouse fibrinogen (final concentration 200 μg/ml) was also added to the platelet suspensions just prior to activation as previously described (Magallon et al., 2011). Aggregation was assessed using a Chronolog Lumi-Aggregometer (model 540 VS, Chronolog, Havertown, PA). In some experiments, blood was collected 2 hours after administering a single dose of CAL-130 (10 mg kg^−1) or vehicle control and ADP-induced aggregation evaluated.

PDGFRA = target: T1, PDGFRA (Homo sapiens, UniProt P16234); assay: Ambit KinomeScan screening; type: binding; settings: CAL-130 10 μM
T1 construct: unspecified tag ('tagged kinases'); purchased Ambit (KinomeScan screening)
Procedure, shortened: (§1)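 In this 353-kinase competition screen, the compound (CAL-130, 10 μM) competed with an immobilized ligand for each tagged kinase. Percentages of control binding above 35% were treated as no hits.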

LZK = target: T2, LZK (Homo sapiens, UniProt O43283); assay: Ambit KinomeScan screening; type: binding; settings: CAL-130 10 μM
T2 construct: unspecified tag ('tagged kinases'); purchased Ambit (KinomeScan screening service)
T2 sequence (O43283 whole entry): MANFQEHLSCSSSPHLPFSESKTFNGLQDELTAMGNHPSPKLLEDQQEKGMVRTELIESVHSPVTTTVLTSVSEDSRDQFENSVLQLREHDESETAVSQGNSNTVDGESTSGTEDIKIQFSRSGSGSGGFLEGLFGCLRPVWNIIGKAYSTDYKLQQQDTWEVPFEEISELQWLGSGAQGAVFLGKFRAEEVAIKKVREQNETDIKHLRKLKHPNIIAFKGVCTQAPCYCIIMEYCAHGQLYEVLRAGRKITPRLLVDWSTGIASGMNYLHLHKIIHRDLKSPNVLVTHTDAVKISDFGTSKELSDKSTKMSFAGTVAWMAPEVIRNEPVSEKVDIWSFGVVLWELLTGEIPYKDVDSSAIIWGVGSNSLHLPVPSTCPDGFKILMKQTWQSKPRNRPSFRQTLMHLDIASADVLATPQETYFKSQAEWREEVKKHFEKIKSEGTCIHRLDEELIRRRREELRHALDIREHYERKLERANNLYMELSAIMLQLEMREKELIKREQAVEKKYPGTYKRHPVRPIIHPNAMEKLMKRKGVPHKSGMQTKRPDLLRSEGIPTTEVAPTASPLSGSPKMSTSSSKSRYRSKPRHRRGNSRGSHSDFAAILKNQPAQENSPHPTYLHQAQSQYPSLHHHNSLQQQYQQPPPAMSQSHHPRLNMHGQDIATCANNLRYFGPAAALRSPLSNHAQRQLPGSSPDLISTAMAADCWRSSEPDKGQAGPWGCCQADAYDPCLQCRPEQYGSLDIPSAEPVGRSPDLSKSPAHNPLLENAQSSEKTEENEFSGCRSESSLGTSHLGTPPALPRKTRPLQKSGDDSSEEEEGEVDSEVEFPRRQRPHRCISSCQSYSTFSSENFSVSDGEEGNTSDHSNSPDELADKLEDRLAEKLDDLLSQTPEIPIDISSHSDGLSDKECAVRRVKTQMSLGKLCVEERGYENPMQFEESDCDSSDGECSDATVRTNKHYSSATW
Procedure, shortened: as §1

MAP4K5 = target: T3, MAP4K5 (Homo sapiens, UniProt Q9Y4K4); assay: Ambit KinomeScan screening; type: binding; settings: CAL-130 10 μM
T3 construct: Ambit (KinomeScan screening)
T3 sequence (Q9Y4K4 whole entry): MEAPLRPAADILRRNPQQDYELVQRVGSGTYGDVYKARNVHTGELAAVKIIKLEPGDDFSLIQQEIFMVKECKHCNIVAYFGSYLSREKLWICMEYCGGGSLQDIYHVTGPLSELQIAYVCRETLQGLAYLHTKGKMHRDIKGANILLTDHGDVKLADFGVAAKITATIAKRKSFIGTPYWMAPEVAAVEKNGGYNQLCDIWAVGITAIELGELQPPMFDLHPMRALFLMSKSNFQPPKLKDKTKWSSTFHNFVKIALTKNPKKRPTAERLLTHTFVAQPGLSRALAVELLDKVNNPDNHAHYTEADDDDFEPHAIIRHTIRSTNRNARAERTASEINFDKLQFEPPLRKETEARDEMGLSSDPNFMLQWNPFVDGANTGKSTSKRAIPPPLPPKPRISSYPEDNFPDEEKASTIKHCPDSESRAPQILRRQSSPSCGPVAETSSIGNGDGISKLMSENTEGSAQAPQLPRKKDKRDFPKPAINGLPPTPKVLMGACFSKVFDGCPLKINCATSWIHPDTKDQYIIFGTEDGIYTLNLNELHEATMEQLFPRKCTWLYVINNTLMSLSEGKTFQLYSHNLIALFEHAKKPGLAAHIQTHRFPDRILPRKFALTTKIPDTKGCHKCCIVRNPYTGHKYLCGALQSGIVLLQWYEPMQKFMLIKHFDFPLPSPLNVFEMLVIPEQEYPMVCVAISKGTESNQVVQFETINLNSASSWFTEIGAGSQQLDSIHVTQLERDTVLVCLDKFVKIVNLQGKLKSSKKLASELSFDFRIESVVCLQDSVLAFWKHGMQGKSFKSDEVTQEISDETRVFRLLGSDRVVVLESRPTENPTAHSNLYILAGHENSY
Procedure, shortened: as §1

FES = target: T4, FES (Homo sapiens, UniProt P07332); assay: Ambit KinomeScan screening; type: binding; settings: CAL-130 10 μM
T4 construct: unspecified tag ("tagged kinases"); purchased Ambit (KinomeScan screening service)
Procedure, shortened: as §1

RIOK1 = target: T5, RIOK1 (Homo sapiens, UniProt Q9BRS2); assay: Ambit KinomeScan screening; type: binding; settings: CAL-130 10 μM
T5 construct: unspecified tag (tagged kinase); purchased Ambit (KinomeScan screening)
Procedure, shortened: as §1

KIT(L576P) = target: T6, KIT(L576P) (Homo sapiens, UniProt P10721, L576P); assay: Ambit KinomeScan screening; type: binding; settings: CAL-130 10 μM
T6 construct: purchased Ambit (KinomeScan screening)
Procedure, shortened: as §1

MYLK2 = target: T7, MYLK2 (Homo sapiens, UniProt Q9H1R3); assay: Ambit KinomeScan screening; type: binding; settings: CAL-130 10 μM
T7 construct: unspecified tag; purchased Ambit (KinomeScan screening panel)
T7 sequence (Q9H1R3 whole entry): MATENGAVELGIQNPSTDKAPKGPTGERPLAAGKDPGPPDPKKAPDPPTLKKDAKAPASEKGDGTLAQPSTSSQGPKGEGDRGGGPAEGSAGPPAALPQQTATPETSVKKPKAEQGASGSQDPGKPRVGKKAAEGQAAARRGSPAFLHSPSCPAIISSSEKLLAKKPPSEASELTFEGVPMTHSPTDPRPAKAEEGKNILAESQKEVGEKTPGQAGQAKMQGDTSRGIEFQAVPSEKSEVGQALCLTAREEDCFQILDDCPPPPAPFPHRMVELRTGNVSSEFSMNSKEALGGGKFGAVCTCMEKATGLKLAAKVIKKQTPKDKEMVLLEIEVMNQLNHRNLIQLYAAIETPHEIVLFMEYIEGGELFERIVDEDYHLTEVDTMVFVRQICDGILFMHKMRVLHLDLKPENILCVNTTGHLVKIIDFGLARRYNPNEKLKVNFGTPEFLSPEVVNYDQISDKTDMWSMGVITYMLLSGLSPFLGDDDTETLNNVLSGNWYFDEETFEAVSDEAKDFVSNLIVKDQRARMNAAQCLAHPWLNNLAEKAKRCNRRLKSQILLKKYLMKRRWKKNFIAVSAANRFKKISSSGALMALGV
Procedure, shortened: as §1

INSR = target: T8, INSR (Homo sapiens, UniProt P06213); assay: Ambit KinomeScan screening; type: binding; settings: CAL-130 10 μM
T8 construct: Ambit (KinomeScan screening)
T8 sequence (P06213 28-1382): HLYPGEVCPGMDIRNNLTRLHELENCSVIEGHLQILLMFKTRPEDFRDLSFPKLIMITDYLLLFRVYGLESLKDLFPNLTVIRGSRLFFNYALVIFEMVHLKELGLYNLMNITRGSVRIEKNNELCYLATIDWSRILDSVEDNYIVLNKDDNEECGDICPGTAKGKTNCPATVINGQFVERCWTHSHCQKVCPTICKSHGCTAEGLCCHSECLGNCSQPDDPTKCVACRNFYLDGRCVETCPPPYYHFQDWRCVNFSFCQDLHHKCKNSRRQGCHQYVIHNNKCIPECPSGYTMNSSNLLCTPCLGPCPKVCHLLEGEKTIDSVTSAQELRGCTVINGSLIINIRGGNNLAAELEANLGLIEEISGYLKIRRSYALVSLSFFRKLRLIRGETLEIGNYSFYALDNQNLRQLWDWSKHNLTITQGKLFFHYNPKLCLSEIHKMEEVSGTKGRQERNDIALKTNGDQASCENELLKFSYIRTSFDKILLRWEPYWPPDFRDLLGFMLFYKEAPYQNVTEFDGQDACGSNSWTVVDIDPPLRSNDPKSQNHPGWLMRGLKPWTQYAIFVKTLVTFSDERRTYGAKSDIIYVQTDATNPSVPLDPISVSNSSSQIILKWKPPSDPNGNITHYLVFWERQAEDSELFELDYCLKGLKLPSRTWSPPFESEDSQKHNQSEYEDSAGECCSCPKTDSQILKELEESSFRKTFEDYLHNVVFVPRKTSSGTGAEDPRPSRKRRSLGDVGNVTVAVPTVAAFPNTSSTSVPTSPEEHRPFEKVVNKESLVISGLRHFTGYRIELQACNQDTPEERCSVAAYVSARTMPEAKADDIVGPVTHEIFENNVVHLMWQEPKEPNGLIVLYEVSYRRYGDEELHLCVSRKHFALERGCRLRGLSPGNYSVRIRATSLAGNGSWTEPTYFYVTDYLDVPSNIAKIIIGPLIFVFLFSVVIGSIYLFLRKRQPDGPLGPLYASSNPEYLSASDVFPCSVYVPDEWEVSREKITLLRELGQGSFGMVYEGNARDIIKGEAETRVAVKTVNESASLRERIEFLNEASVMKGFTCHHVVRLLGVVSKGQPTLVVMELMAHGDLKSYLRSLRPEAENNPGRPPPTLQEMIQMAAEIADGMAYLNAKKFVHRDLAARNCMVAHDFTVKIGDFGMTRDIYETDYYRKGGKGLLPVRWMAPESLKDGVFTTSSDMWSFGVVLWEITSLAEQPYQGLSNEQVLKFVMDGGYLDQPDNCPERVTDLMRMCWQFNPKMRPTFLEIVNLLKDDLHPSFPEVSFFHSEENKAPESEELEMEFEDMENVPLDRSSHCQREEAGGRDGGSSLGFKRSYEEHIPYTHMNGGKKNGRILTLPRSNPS
Procedure, shortened: as §1

EGFR(G719S) = target: T9, EGFR(G719S) (Homo sapiens, UniProt P00533, G719S); assay: Ambit KinomeScan screening; type: binding; settings: CAL-130 10 μM
T9 construct: unspecified tag; purchased Ambit (KinomeScan screening service)
Procedure, shortened: as §1

MST2 = target: T10, MST2 (Homo sapiens, UniProt Q13188); assay: Ambit KinomeScan screening; type: binding; settings: CAL-130 10 μM
T10 construct: unspecified tag ('tagged kinases'); purchased Ambit (KinomeScan screening)
Procedure, shortened: as §1

DDR2 = target: T11, DDR2 (Homo sapiens, UniProt Q16832); assay: Ambit KinomeScan screening; type: binding; settings: CAL-130 10 μM
T11 construct: unspecified tag ("tagged kinases"); purchased Ambit (KinomeScan screening service)
T11 sequence (Q16832 22-855): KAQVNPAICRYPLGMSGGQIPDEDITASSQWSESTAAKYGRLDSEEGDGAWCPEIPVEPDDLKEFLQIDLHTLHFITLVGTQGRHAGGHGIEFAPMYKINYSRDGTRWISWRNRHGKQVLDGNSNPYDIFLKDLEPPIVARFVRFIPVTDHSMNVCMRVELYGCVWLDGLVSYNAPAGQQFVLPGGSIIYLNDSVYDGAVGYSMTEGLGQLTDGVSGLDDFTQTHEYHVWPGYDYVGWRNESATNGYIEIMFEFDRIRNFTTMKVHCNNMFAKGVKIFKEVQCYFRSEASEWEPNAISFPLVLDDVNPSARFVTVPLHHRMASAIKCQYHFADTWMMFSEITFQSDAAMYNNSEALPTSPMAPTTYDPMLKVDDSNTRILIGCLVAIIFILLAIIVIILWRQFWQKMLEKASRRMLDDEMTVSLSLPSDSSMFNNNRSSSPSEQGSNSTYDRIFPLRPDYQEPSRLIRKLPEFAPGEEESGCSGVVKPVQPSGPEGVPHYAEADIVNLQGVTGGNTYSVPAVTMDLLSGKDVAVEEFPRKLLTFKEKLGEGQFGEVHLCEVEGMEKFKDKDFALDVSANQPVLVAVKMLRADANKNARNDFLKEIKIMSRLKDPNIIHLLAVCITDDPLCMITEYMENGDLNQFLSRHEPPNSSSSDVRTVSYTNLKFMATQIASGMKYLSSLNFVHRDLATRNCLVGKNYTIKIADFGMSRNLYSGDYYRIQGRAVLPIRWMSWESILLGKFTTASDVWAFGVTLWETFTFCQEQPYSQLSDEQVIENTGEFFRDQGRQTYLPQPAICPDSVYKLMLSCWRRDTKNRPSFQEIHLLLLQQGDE
Procedure, shortened: as §1

MLK3 = target: T12, MLK3 (Homo sapiens, UniProt Q16584); assay: Ambit KinomeScan screening; type: binding; settings: CAL-130 10 μM
T12 construct: unspecified tag ('tagged kinases'); purchased Ambit (KinomeScan screening)
Procedure, shortened: as §1

RPS6KA5 = target: T13, RPS6KA5 (Homo sapiens, UniProt O75582); assay: Ambit KinomeScan screening; type: binding; settings: CAL-130 10 μM
T13 construct: tag, kind not specified; purchased Ambit (KinomeScan screening service)
Procedure, shortened: as §1

p38-γ = target: T14, p38-γ (Homo sapiens, UniProt P53778); assay: Ambit KinomeScan screening; type: binding; settings: CAL-130 10 μM
T14 construct: purchased Ambit (KinomeScan screening service)
T14 sequence (P53778 whole entry): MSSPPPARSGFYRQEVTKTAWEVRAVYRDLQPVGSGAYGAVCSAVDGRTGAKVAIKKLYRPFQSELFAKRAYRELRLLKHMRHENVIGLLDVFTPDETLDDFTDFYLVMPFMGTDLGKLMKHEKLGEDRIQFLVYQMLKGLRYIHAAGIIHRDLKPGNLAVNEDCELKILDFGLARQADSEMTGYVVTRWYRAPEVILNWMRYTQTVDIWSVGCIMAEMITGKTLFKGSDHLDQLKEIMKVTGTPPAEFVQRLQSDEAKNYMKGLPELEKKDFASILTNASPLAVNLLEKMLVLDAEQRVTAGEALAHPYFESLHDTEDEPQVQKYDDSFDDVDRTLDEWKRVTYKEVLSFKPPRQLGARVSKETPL
Procedure, shortened: as §1

MAP3K1 = target: T15, MAP3K1 (Homo sapiens, UniProt Q13233); assay: Ambit KinomeScan screening; type: binding; settings: CAL-130 10 μM
T15 construct: Ambit (KinomeScan screening)
Procedure, shortened: as §1

MLCK = target: T16, MLCK (Homo sapiens, UniProt Q32MK0); assay: Ambit KinomeScan screening; type: binding; settings: CAL-130 10 μM
T16 construct: unspecified tag ('tagged kinases'); purchased Ambit (KinomeScan screening)
Procedure, shortened: as §1

CSF1R = target: T17, CSF1R (Homo sapiens, UniProt P07333); assay: Ambit KinomeScan screening; type: binding; settings: CAL-130 10 μM
T17 construct: purchased Ambit (KinomeScan screening service)
Procedure, shortened: as §1

PKAC-α = target: T18, PKAC-α (Homo sapiens, UniProt P17612); assay: Ambit KinomeScan screening; type: binding; settings: CAL-130 10 μM
T18 construct: unspecified tag; purchased Ambit (KinomeScan screening panel)
Procedure, shortened: as §1

TAOK3 = target: T19, TAOK3 (Homo sapiens, UniProt Q9H2K8); assay: Ambit KinomeScan screening; type: binding; settings: CAL-130 10 μM
T19 construct: tag (kind not specified); purchased Ambit (KinomeScan screening service)
Procedure, shortened: as §1

EGFR(L861Q) = target: T20, EGFR(L861Q) (Homo sapiens, UniProt P00533, L861Q); assay: Ambit KinomeScan screening; type: binding; settings: CAL-130 10 μM
T20 construct: unspecified tag; purchased Ambit (KinomeScan screening service)
Procedure, shortened: as §1

MYO3A = target: T21, MYO3A (Homo sapiens, UniProt Q8NEV4); assay: Ambit KinomeScan screening; type: binding; settings: CAL-130 10 μM
T21 construct: unspecified tag; purchased Ambit (KinomeScan screening panel)
Procedure, shortened: as §1

LATS1 = target: T22, LATS1 (Homo sapiens, UniProt O95835); assay: Ambit KinomeScan screening; type: binding; settings: CAL-130 10 μM
T22 construct: unspecified tag ('tagged kinases'); purchased Ambit (KinomeScan screening service)
Procedure, shortened: as §1

Plasma levels of CAL-130 = type: in vivo, mouse; settings: 10 mg kg−1 orally, at the end of 8 hours
Procedure: For CAL-130 level determinations, animals received a single oral dose (10 mg kg^−1 or 20 mg kg^−1) of inhibitor. Plasma was collected at 0, 2, 4, 8, and 12 hours and subjected to high-performance liquid chromatography-MS/MS (sensitivity 1 ng/mL). The concentration of CAL-130 in plasma was determined using a standard curve (analyte peak area versus concentration) generated with calibration standard pools. Values represent the mean (±SD) for four animals per group.

Cc1ccccc1-n1c(C(C)Nc2nc(N)nc3nc[nH]c23)nc2cccc(C)c2c1=O (stereo not drawn) [CAL-130]
330 ± 180 nM: plasma concentration (Plasma levels of CAL-130)
100%: Percent of Control Binding (PDGFRA) | Percent of Control Binding (LZK) | Percent of Control Binding (MAP4K5) | Percent of Control Binding (FES) | Percent of Control Binding (RIOK1) | Percent of Control Binding (KIT(L576P)) | Percent of Control Binding (MYLK2) | Percent of Control Binding (INSR) | Percent of Control Binding (EGFR(G719S)) | Percent of Control Binding (MST2) | Percent of Control Binding (DDR2) | Percent of Control Binding (MLK3) | Percent of Control Binding (RPS6KA5) | Percent of Control Binding (p38-γ) | Percent of Control Binding (MAP3K1) | Percent of Control Binding (MLCK) | Percent of Control Binding (CSF1R) | Percent of Control Binding (PKAC-α) | Percent of Control Binding (TAOK3) | Percent of Control Binding (EGFR(L861Q)) | Percent of Control Binding (MYO3A) | Percent of Control Binding (LATS1)
no obvious defect: ADP-mediated platelet aggregation (platelets)
